In PMC11858653, “Design, Synthesis and Bioactive Evaluation of Topo I/c-MYC Dual Inhibitors to Inhibit Oral Cancer via Regulating the PI3K/AKT/NF-κB Signaling Pathway” (Molecules, 2025):

Tests used:
Cal27 cells = assay: MTT cell survival with autophagy inhibitor CQ; type: cell-based, human; conditions: Cal27, 20 μM alone
Protocol: Meanwhile, to further confirm that compound 7be could induce autophagic death in Cal27 cells, we used a classical autophagy inhibitor, chloroquine (CQ), to evaluate the role of autophagy in compound 7be-mix-induced cell death.
(§1) Human oral cancer Cal27 cells were seeded in 96-well plates and incubated overnight in 180 μL of medium containing 10% Fetal Bovine Serum (Gibco, San Francisco, CA, USA). On the following day, compounds at final concentrations of 2.5, 5, 10 and 20 μM were added to each well and incubated for 48 h. Then, 10 μL of 5 mg/mL MTT solution was added to each well and incubated at 37 °C for 4 h. After 4 h of incubation at 37 °C, the MTT-containing medium was removed and DMSO was added to each well and the absorbance at 570 nm and 630 nm was measured using a microplate reader (CYTATION 3, Burton, Westwood, NJ, USA). Survival/% = (mean OD of experimental group/mean OD of control group) × 100%. Each test was repeated at least three times.

NCI-H460 = assay: MTT antiproliferative assay, NCI-H460; type: cell-based, human; conditions: 48 h, mean ± SD
Protocol: (§2) Having evaluated their Topo I inhibitory activity, the antiproliferative activity of the target compounds against some common human cancer cell lines (NCI-H460, A549, ACHN, Cal27 and MGC-803) and one normal cell line (SV-HUC-1) was tested via an MTT assay. TPT, the first Topo I inhibitor approved in clinics, and cisplatin (CDDP), a commonly selected anticancer drug for treating head and neck malignancies, were used as the positive controls.
as §1, with “On the following day, compounds at final concentrations of 2.5, 5, 10 and 20 μM were added to each well and incubated for 48 h.” left out

A549 = assay: MTT antiproliferative assay, A549; type: cell-based, human; conditions: 48 h, mean ± SD
Protocol: as §2
as §1, with “On the following day, compounds at final concentrations of 2.5, 5, 10 and 20 μM were added to each well and incubated for 48 h.” left out

ACHN = assay: MTT antiproliferative assay, ACHN; type: cell-based, human; conditions: 48 h, mean ± SD
Protocol: as §2
as §1, with “On the following day, compounds at final concentrations of 2.5, 5, 10 and 20 μM were added to each well and incubated for 48 h.” left out

Cal27 = assay: MTT antiproliferative assay, Cal27; type: cell-based, human; conditions: 48 h, mean ± SD
Protocol: as §2
as §1, with “On the following day, compounds at final concentrations of 2.5, 5, 10 and 20 μM were added to each well and incubated for 48 h.” left out

MGC-803 = assay: MTT antiproliferative assay, MGC-803; type: cell-based, human; conditions: 48 h, mean ± SD
Protocol: as §2
as §1, with “On the following day, compounds at final concentrations of 2.5, 5, 10 and 20 μM were added to each well and incubated for 48 h.” left out

[1] = tested on: human oral cancer Cal27 xenograft tumor; assay: In vivo antitumor activity, Cal27 xenograft; design: species or system BALB/c nude mice; conditions: 2 mg/kg i.p. once every other day, 21 days
Protocol: Nude mouse organ and tumor tissues fixed with neutral formalin solution were paraffin-embedded according to the conventional processing method. Sections were cut to a thickness of approximately 5 μm, placed on glass slides and dewaxed in an oven at 60 °C, stained for H&E and immunohistochemistry and finally visualized with the Cytation 5 imaging system.
For this assay, 130 SPF-grade BALB/c mice (female, 4–6 weeks old, 18–20 g) were obtained from Chang Zhou Cavens Laboratory Animal Ltd. (Changzhou, China). The in vivo activity experiments were commissioned by Nanjing OG Pharmaceuticals, Co., Ltd. (Nanjing, China) All mice were housed in plastic cages, fed, and watered under standard conditions and air filtration (22 ± 2 °C; 12 h light/dark cycles). Under aseptic conditions, human oral cancer Cal27 cells were inoculated subcutaneously in the right axilla of BALB/c nude mice. When the tumors had grown to about 85 mm^3, 24 […] mice with good growth status and good homogeneity of tumor size were selected and randomly divided into the following four groups of six mice each: (1) the model group; (2) the low-dose group; (3) the high-dose group; and (4) the positive drug group. The drug dose in the low-dose group was 10 mg/kg, which was injected intraperitoneally once every other day, for the duration of 21 days of administration; the drug dose in the high-dose group was 20 mg/kg, which was injected intraperitoneally once every other day, for the duration of 21 days of administration; and the drug dose in the cisplatin group was 2 mg/kg, which was injected intraperitoneally once every other day, for the duration of 21 days of administration. Normal tissues of the heart, liver, spleen, lung and kidney and half of the tumor tissues were fixed with 4% formalin solution and embedded in paraffin for histological analysis; the other half of the tumor tissues were preserved in liquid nitrogen, and the supernatant was extracted after milling the tissues and detected by Western blot.

Row | IC50 (NCI-H460) [µM] | IC50 (A549) [µM] | IC50 (ACHN) [µM] | IC50 (MGC-803) [µM] | SMILES | cell survival rate versus control group (Cal27 cells; 24 h) | cell survival rate (Cal27 cells; 48 h) | IC50 (Cal27) [µM] | relative tumor proliferation rate [1] [%] | tumor inhibition rate / tumor growth inhibition (TGI) [1] [%] | tumor inhibition rate / tumor growth inhibition (TGI) ([1]; listed as cisplatin) [%]
1 |  |  |  |  | CCN(CC)CCCC(C)Nc1ccnc2cc(Cl)ccc12 (stereo not shown) [CQ, chloroquine] | not significantly different | more than 80% |  |  |  | 
2 | 12.2 ± 1.01 | 8.69 ± 1.05 | 12.4 ± 1.31 | 12.3 ± 0.8 | [NH2][Pt]([NH2])([Cl])[Cl] [CDDP, cisplatin, reference compound] |  |  | 8.81 ± 1.73 | 39.8 | 59.44 | 59.4
